One compound from patent publication US20240400547A1, “2,6-PIPERIDINEDIONE COMPOUND AND APPLICATION THEREOF” (MEDSHINE DISCOVERY INC., priority 2021, published 2024) can be followed below.

The data set in a line: Pharmacokinetic evaluation in beagles. It is filed as in vivo, beagle. The note with it: beagles (fed). The text has this: In this study, male beagles were selected as test animals, and LC/MS/MS method was used to quantify plasma concentrations of the test compound intravenously injected or intragastrically administered to beagles at different time points, so as to evaluate the pharmacokinetic profile of the compounds of the present disclosure in beagles.
Beagle (male, 7 to 10 kg, Beijing Marshall Biotechnology Co., Ltd.).
• A clear solution of the test compound was slowly injected into beagle via the peripheral vein (fed) (vehicle: […]/10% solutol/85% H2O or 5% DMSO/10% solutol/85% H2O), or intragastrically administered to beagles (fed). For intravenous injection, 0.5 mL blood was collected via the saphenous vein puncture at 0.083, 0.25, 0.5, 1, 2, 4, 6, 8, and 24 h after administration, and placed in a EDTA-2K anticoagulant tube. The mixture was centrifuged at 3200 g for 10 minutes at 2 to 8° C., and the supernatant was separated. For oral administration, 0.5 mL blood was collected via the saphenous vein puncture at 0.083, 0.25, 0.5, 1, 2, 4, 6, 8, and 24 h after administration, and placed in a EDTA-2K anticoagulant tube. The mixture was centrifuged at 3200 g for 10 minutes at 2 to 8° C., and the supernatant was separated. Plasma drug concentrations were determined by LC-MS/MS method, and relevant pharmacokinetic parameters were calculated using Phoenix WinNonlin 6.3 pharmacokinetic software with non-compartmental model linear-log trapezoidal method.

Setting [1] is: intragastric administration 5 mg/kg.

Counter-ions that a name gives are not always drawn.

As to `O=C1CCC(c2noc3ccc4c(NC(=O)CN5CCN(C[C@H]6CC[C@H](n7cc(NC(=O)c8coc(-c9ccnc(NCC%10CC%10)c9)n8)c(C(F)F)n7)CC6)CC5)cccc4c23)C(=O)N1` (some centres unmarked) [Hydrochloride of WX014], under setting [1], the “Area under drug-time curve (0-inf)” value was found to be 3.20 µM·h, the Peak concentration worked out at 0.41 µM and the “Time to peak concentration” value turned out to be 4.00 h. Moreover, where the note is “intravenous injection 0.5 mg/kg”, the “Area under drug-time curve (0-inf)” value is 0.44 µM·h. For the same compound, the Vd (male, beagle, dog, plasma, intravenous injection 0.5 mg/kg, read-out: Apparent volume of distribution) turned out to be 5.83 L/kg.
